Reference: publication PMC9352912, “Oncogenic KRAS G12C: Kinetic and redox characterization of covalent inhibition” (The Journal of Biological Chemistry, 2022)

How the values were obtained:
[1] = target: T1, KRAS^CCLW (KRAS^G12C/C51S/C80L/C118S/Y137W) (Homo sapiens, UniProt P01116, C118S/C51S/C80L/G12C/Y137W); assay: Stopped-flow fluorescence kinetics of KRAS^CCLW with covalent inhibitor (binding and ligation); details: for k +1: global fit KinTek Explorer, kon of reversible binding; for k +2 / k −1: global fit; for k +2: kinact; for k −1: koff of reversible binding
T1 construct: Truncated human KRAS4B (residues 2–169) was expressed from a modified pET21 bacterial expression vector; 6xHis (followed by TEV site) (N, cleaved yes); made in house; host or cells: Rosetta2 (DE3) cells (E. coli)
Experimental: Note that in this kinetic model, k+1 represents kon and k-1 represents koff for reversible inhibitor binding, and Kd can be calculated from the ratio of the two. In addition, k+2 represents kinact and k-2, not shown in the model, is 0 due to the irreversible formation of the covalent bond between KRAS and inhibitor.
The KRAS was first reduced by adding 10 mM DTT and incubating at 20 °C for 30 min and then passed over a PD-10 desalting column to remove excess DTT, then the protein was exchanged into a buffer containing 10 mM Hepes at pH 7.5, with 50 mM NaCl, 5 mM MgCl2, and 10 μM GDP. Samples were loaded into the syringes of an Applied Photophysics SX.18 MV stopped-flow spectrophotometer and allowed to equilibrate to 5 or 20 °C. The fluorescence changes were recorded after sample mixing via monitoring at 90° relative to incident light with excitation at 280 nm and emission >320 nm. Separate time courses were used to investigate the fast initial changes (0.2–1 s) and the much slower phase (100–1000 s) of decreasing fluorescence signal. Data were analyzed using Applied Photophysics software and fit to single (or double) exponentials as appropriate. To obtain rate constants and inhibition parameters, data from all (four or more) inhibitor concentrations at a given pH and 5 °C were fit globally using KinTek Global Kinetic Explorer (version 10.2.0) ([20], [38]) using Equation 2 (both steps are taken to be reversible, but the second step returns a reverse rate that is essentially 0). […] Briefly, data were fit to Equation 3 using Kaleidagraph software, version 4.5.4:(3) y=(kinact/Ki)×/(1+((kinact/Ki)×/kinact))

[2] = Inhibitor solubility in MHT reaction buffer; details: MHT buffer with 3% dimethyl sulfoxide
KRAS^CCLW = assay: ESI-TOF mass spectrometry of adduct formation with reduced or H2O2-oxidized KRAS^CCLW; details: for reaction with sulfenic acid form of protein: H2O2-oxidized KRAS^CCLW (-SOH)
Experimental: The samples were buffer exchanged using a P6 Bio-Gel column that was pre-equilibrated with 50 mM ammonium bicarbonate (ABC). […] Oxidation was achieved by addition of 1 to 10 molar equivalents of H2O2 for 10 min at 25 °C with 250 RPM shaking using a thermomixer. The reaction was quenched by passing through a P6 Bio-Gel spin column pre-equilibrated with ABC.
Samples were introduced via direct infusion at a flow rate of 20 μl/min using a syringe pump. Mass spectra were acquired over the range of 600 − 3200 m/z and then averaged and deconvoluted, and ion abundance was quantified using Agilent MassHunter Workstation software vB.02.00. Relative ion abundances were used to determine the reaction progress.

Cys12 [3] = target: T2, Cys12 (UniProt position 12, VVVGACGVGKS); assay: kinetics; details: 50 mM NaCl, 5 mM MgCl2, MHT buffer: 50 mM MES, 50 mM Hepes, 50 mM Tris, Pre-reduced protein reacting with ARS-853 (inhibitor-bound encounter complex), GDP form
Cys12 [4] = target: T2, Cys12; assay: NMR; details: 25 °C, 40 mM NaCl, 5 mM MgCl2, 20 mM Tris-Maleate, 5 mM MgCl2, 20 μM GDP, GDP-bound, inhibitor-free, folded
Cys12 [5] = target: T2, Cys12; assay: chemical modification

For C=CC(=O)N1CC(N2CCN(C(=O)CNc3cc(C4(C)CC4)c(Cl)cc3O)CC2)C1 [ARS-853], the “k +1” value ([1]; pH 7.0, 5 °C) was 1.35 ± 0.01, the “k +2” value ([1]; pH 7.0, 5 °C) was 0.0073 ± 0.0004 and the “k −1” value ([1]; pH 7.0, 5 °C) was 49.7 ± 0.3. The “k +1” value ([1]; pH 7.5, 5 °C) was 1.69 ± 0.01, the “k +2” value ([1]; pH 7.5, 5 °C) was 0.0169 ± 0.0005 and the “k −1” value ([1]; pH 7.5, 5 °C) was 51.1 ± 0.3. For the same compound, the “k +1” value ([1]; pH 8.0, 5 °C) was 1.50 ± 0.01, the “k +2” value ([1]; pH 8.0, 5 °C) was 0.038 ± 0.006 and the “k −1” value ([1]; pH 8.0, 5 °C) was 51.2 ± 0.3. For the same compound, the “k +1” value ([1]; pH 8.5, 5 °C) was 1.45 ± 0.01, the “k +2” value ([1]; pH 8.5, 5 °C) was 0.099 ± 0.001 and the “k −1” value ([1]; pH 8.5, 5 °C) was 61.7 ± 0.4. The “k +1” value ([1]; pH 9.0, 5 °C) was 0.976 ± 0.009, the “k +2” value ([1]; pH 9.0, 5 °C) was 0.280 ± 0.003 and the “k −1” value ([1]; pH 9.0, 5 °C) was 75.1 ± 0.4. The “inhibitor solubility (no problem encountered up to)” value [2] was no less than 300 µM, the “reaction with sulfinic acid form of protein” value (KRAS^CCLW; H2O2-oxidized KRAS^CCLW (-SO2H)) was “did not react” and the “reaction with sulfenic acid form of protein” value (KRAS^CCLW) was “did not react”. The “time to adduct formation with reduced protein” value (KRAS^CCLW; reduced KRAS^CCLW (-SH), […] excess of inhibitor, 25 °C) was no more than 5 min.
In the case of CC1(C)CC(=O)CC(=O)C1 [dimedone], the “reaction with sulfenic acid form of protein” value (KRAS^CCLW) is reported as “reacted rapidly”.
For “GTPase KRas (KRAS4B) G12C Cys-light Y137W (KRAS-CCLW) (Homo sapiens; G12C;C51S;C80L;C118S;Y137W)”, the pKa (Cys12 [3]; 5 °C) was 8.15 ± 0.13 and the pKa (Cys12 [3]; 20 °C) was 8.21 ± 0.09.
For “GTPase KRas (KRAS4B) G12C/C118S (Homo sapiens; G12C;C118S)”, the pKa (Cys12 [4]) was 7.6 ± 0.4 and the pKa (Cys12 [5]; 50 mM NaCl, 5 mM MgCl2, 15 mM Hepes, 15 mM MES, 5 mM MgCl2, 50 mM NaCl, 200 μM DTPA, N2-sparged, DTT removed, Reduced thiol, inhibitor-free. Nucleotide state not stated for this assay.) was 7.6 ± 0.1.
In the case of “GTPase KRas G12C (as studied by Hansen et al. 2018) (Homo sapiens; G12C)”, the pKa (Cys12 [5]; KRAS G12C reacting with N-benzylacrylamide, cited from earlier work) is listed as 9.2 and the pKa (Cys12 [5]; inhibitor-free KRAS G12C, cited from earlier work) is listed as 9.0 ± 0.2.
